From the CheMixHub viscosity set

Experiment: xn = mol fraction of the nth substance listed

Ic1ccccc1 + CCCCCO
293.15 K, 101.33 kPa
Settings	viscosity [mPa·s]
x2 = 0.1	1.665
x2 = 0.2	1.694
x2 = 0.25	1.709
x2 = 0.3834	1.864
x2 = 0.4289	1.94
x2 = 0.5101	2.098
x2 = 0.7761	2.915
x2 = 0.8055	3.043
x2 = 0.8184	3.1
x2 = 0.8554	3.273
x2 = 0.9419	3.7
x2 = 0.975	3.867

C#Cc1ccccc1 + CCCCCOC(C)=O
Settings	viscosity [mPa·s]
298.15 K, 101 kPa, x1 = 0.0691	0.791

C1COCCO1 + CCCCO
298.15 K, 101 kPa
Settings	viscosity [mPa·s]
x1 = 0.0346	2.264
x1 = 0.127	1.806
x1 = 0.5	1.272
x1 = 0.5917	1.099
x1 = 0.6726	1.074
x1 = 0.7123	1.07
x1 = 0.768	1.073
x1 = 0.8002	1.078
x1 = 0.8852	1.091
x1 = 0.9472	1.126

CC(=O)OCC(COC(C)=O)OC(C)=O + CCCCO
viscosity [mPa·s], 101.33 kPa
Settings	x1 = 0.1	x1 = 0.2	x1 = 0.3	x1 = 0.4	x1 = 0.5	x1 = 0.6	x1 = 0.7	x1 = 0.8	x1 = 0.9
298 K	2.4	2.7	3.12	3.71	4.5	5.57	6.99	9.02	11.93
303 K	2.11	2.34	2.69	3.17	3.82	4.65	5.79	7.34	9.49
308 K	1.87	2.06	2.36	2.75	3.27	3.96	4.86	6.07	7.72
313 K	1.67	1.83	2.07	2.4	2.84	3.41	4.15	5.1	6.39

CCCC#N + CCCCO
viscosity [mPa·s], 101.33 kPa
Settings	x2 = 0.1001	x2 = 0.1981	x2 = 0.2994	x2 = 0.3979	x2 = 0.4953	x2 = 0.5961	x2 = 0.6981	x2 = 0.7984	x2 = 0.8991
298.15 K	0.58	0.623	0.684	0.764	0.869	1.012	1.211	1.482	1.885
308.15 K	0.515	0.547	0.596	0.66	0.741	0.852	1.003	1.208	1.506
318.15 K	0.461	0.487	0.526	0.575	0.64	0.726	0.842	1.002	1.221

Brc1ccccc1 + CCCCOC(C)=O
viscosity [mPa·s], 101 kPa
Settings	298.15 K	308.15 K
x2 = 0.0489	0.919	0.88
x2 = 0.1488	0.737	0.746
x2 = 0.2514	0.615	0.649
x2 = 0.3499	0.54	0.584
x2 = 0.4493	0.495	0.541
x2 = 0.4965	0.482	0.526
x2 = 0.5512	0.474	0.515
x2 = 0.6501	0.474	0.505
x2 = 0.7497	0.496	0.51
x2 = 0.8499	0.542	0.53
x2 = 0.9226	0.595	0.556

CCCCn1cc[n+](C)c1.O=S(=O)([N-]S(=O)(=O)C(F)(F)F)C(F)(F)F + CCCCn1cc[n+](C)c1.F[B-](F)(F)F
Settings	viscosity [mPa·s]
323.15 K, 100 kPa, x1 = 0.751	23.85
